Laboratory results as given in US20080311045A1, “Polymersomes for Use in Acoustically Mediated Intracellular Drug Delivery in vivo” (Biovaluation & Analysis, Inc., priority 2007, published 2008).

How the values were obtained:
[1] = Laser-photobleaching lipid probe diffusivity in membranes; type: physicochemical
[2] = Micropipette aspiration of polymersome membranes (elastic moduli, rupture, toughness); type: physicochemical; conditions: micropipette aspiration at 23° C.
Method: A tool that has been used to measure many of the material properties of bilayer vesicles is, for example, “micropipette aspiration.” In micropipette aspiration, the rheology and material properties of micron-sized objects are measured using glass pipettes. Small, micron diameter pipettes are used to pick up, deform, and manipulate micron-sized objects, such as giant lipid vesicles. The aspiration pressure is controlled by manometers, in which the hydrostatic pressure in a reservoir connected to the micropipette is varied in relation to a fixed reference.
A deformable object is aspirated using a pressure driving force—or suction pressure—ΔP, and the object is drawn within the pipette to a projection length LP. […] The bending modulus is measured by exerting small tensions on the membrane, to smooth out thermally driven surface undulations. […] Procedures for this important technique and its many modification are readily available to those skilled in the art. […]
Analogous to a lipid bilayer, at low but increasing aspiration pressures, the thermally undulating polymersome membrane is progressively smoothed, increasing the projected area logarithmically with tension, τ. From the slope of this increase (i.e., in tension units of mN/m) versus the fractional change, α, in vesicle area, the bending modulus, Kb, is calculated (see, e.g., Evans et al., 1990) with the following equation: […]

SMILES: CCCCCCCC/C=C\CCCCCCCC(=O)O[C@H](COC(=O)CCCCCCCCCCCCCCCCC)COP(=O)([O-])OCC[N+](C)(C)C [SOPC, 1-stearoyl-2-oleoyl phosphatidylcholine]
- lipid probe diffusivity [1]: approximately 3×10^−8 cm^2/s
- area expansion modulus, Ka [2]: ~180 mN/m
